# Measured values published in PubChem BioAssay AID2060512 (Molecular Pharmacology Branch, DTP, NCI, 2025).
# System: 186277-243-T-J2-PDC complex spheroid viability
# Assay: Anticancer human tumor 186277-243-T-J2-PDC patient-derived colon adenocarcinoma cell line growth inhibition [GQUAD]
# Details: for IC50: curve of first compound; for viability, T/C: stronger effect = lower value
# Source text: DNA G-quadruplex Stabilizer Agents in Combinations in Complex Spheroids
# A high-throughput screen of multi-cell type tumor spheroids was designed to identify active combinations of DNA G-quadruplex stabilizer agents and targeted small molecules. Complex spheroids include a stromal component modeled by human endothelial cells (HUVEC) and fibroblasts modeled by human mesenchymal stem cells (MSCs). The concentration ranges selected for each drug and investigational agent were based upon clinically achievable concentrations if the clinical Cmax of the agent was known.
# Compounds. The drugs and investigational agents: pidnarulex (CX-5461; NSC782164), APTO-253 (NSC789042), BRACO-19 (NSC847499), peposertib (NSC802822), ceralasertib (NSC780249), elimusertib (NSC800525), camonsertib (NSC841442), AZD-1390 (NSC803789), olaparib (NSC753686), talazoparib (NSC767125), ART-558 (NSC835418), sotorasib (NSC818433), MRTX-1133 (NSC836407), SN-38 (NSC673596), topotecan (NSC609699), etoposide (NSC141540), doxorubicin (NSC123127), gemcitabine (NSC613327), 5-fluorouracil (NSC19893), paclitaxel (NSC125973), vemurafenib (NSC761431), panobinostat (NSC761190), R-306465 (JNJ-16241199; NSC773264), adavosertib (NSC754352), TP-3654 (NSC805149), carboplatin (NSC241240), KSQ-4279 (NSC840948), and staurosporine (NSC755774) were obtained from the National Cancer Institute (NCI) Developmental Therapeutics Program Chemical Repository (34). The FDA-approved anticancer drug set is available from the NCI Developmental Therapeutics Program. […] The stock solutions were prepared in dimethyl sulfoxide (DMSO, Sigma-Aldrich, St. Louis, MO, cat. D2650) at 800-fold the tested concentration and stored at -70 degrees C prior to their use. All drugs and investigational agents were tested over a range starting from a high concentration at or near the clinical Cmax and decreasing in half-log increments. If the clinical Cmax for an agent had not been determined, the highest concentration tested was 10 microM.
# 2.3 Cell Culture. All cells were maintained in an incubator at 37 degrees C and 5% CO2 with 95% humidity. The PDC lines were cultured according to standard operating procedures established by the NCI PDMR. All PDCs were thawed and cultured in Matrigel-coated flasks prepared with a working solution of 1X Ham's F-12 nutrient mix, without supplementation (Invitrogen, cat. 11765054), 100 U/mL penicillin-streptomycin (Invitrogen, cat. 15140122), and 2.5% Matrigel (Corning Inc., cat. 354248) for the first three passages. The 857933-349-R-J2-PDC line was cultured in 6C/Colon 1B media, which includes advanced DMEM/F-12 (Thermo Fisher Scientific, cat. 12634028), 10 mM HEPES (Thermo Fisher Scientific, cat. 15630080), 1X GlutaMAX supplement (Thermo Fisher Scientific, cat. 35050061), 0.1 mg/mL primocin (InvivoGen, cat. ant-pm-2), 10% defined fetal bovine serum, heat inactivated (HyClone Laboratories Inc., cat. SH30070.03HI), 50% L-WRN conditioned media (ATCC, cat. CRL-3276), 1.25 mM N-Acetyl-L-cysteine (Sigma-Aldrich, cat. A9165), 10 mM nicotinamide (Sigma-Aldrich, cat. N0636), 1X B-27 supplement (Thermo Fisher Scientific, cat. 17504044), 1X N-2 supplement (Thermo Fisher Scientific, cat. 17502048), 10 microM Y-27632 dihydrochloride (Tocris Bioscience, cat. 1254), and 50 ng/mL human EGF recombinant protein (Thermo Fisher Scientific, cat. PHG0311). The 485176-168-R4-J1-PDC line was cultured in Panc media, which includes all 6C/Colon 1B media components plus 100 ng/mL human FGF-10 (Thermo Fisher Scientific, cat. 100-26), 500 nM SB-431542 (Selleckchem, cat. S1067), and gastrin (Tocris, cat. 3006).
# […]
# [1] = second compound 0.0316 µM, first compound 0.0316 µM
# [2] = second compound 0.0316 µM, first compound 0.1 µM
# [3] = second compound 0.0316 µM, first compound 0.316 µM
# [4] = second compound 0.0316 µM, first compound 1 µM
# [5] = second compound 0.0316 µM, first compound 3.16 µM
# [6] = second compound 0.0316 µM, first compound 10 µM
# [7] = second compound 0.1 µM, first compound 0.0316 µM
# [8] = second compound 0.1 µM, first compound 0.1 µM
# [9] = second compound 0.1 µM, first compound 0.316 µM
# [10] = second compound 0.1 µM, first compound 1 µM
# [11] = second compound 0.1 µM, first compound 3.16 µM
# [12] = second compound 0.1 µM, first compound 10 µM
# [13] = second compound 0.316 µM, first compound 0.0316 µM
# [14] = second compound 0.316 µM, first compound 0.1 µM
# [15] = second compound 0.316 µM, first compound 0.316 µM
# [16] = second compound 0.316 µM, first compound 1 µM
# [17] = second compound 0.316 µM, first compound 3.16 µM
# [18] = second compound 0.316 µM, first compound 10 µM
# [19] = second compound 1 µM, first compound 0.0316 µM
# [20] = second compound 1 µM, first compound 0.1 µM
# [21] = second compound 1 µM, first compound 0.316 µM
# [22] = second compound 1 µM, first compound 1 µM
# [23] = second compound 1 µM, first compound 3.16 µM
# [24] = second compound 1 µM, first compound 10 µM
# [25] = second compound 3.16 µM, first compound 0.0316 µM
# [26] = second compound 3.16 µM, first compound 0.1 µM
# [27] = second compound 3.16 µM, first compound 0.316 µM
# [28] = second compound 3.16 µM, first compound 1 µM
# [29] = second compound 3.16 µM, first compound 3.16 µM
# [30] = second compound 3.16 µM, first compound 10 µM
# [31] = second compound 10 µM, first compound 0.0316 µM
# [32] = second compound 10 µM, first compound 0.1 µM
# [33] = second compound 10 µM, first compound 0.316 µM
# [34] = second compound 10 µM, first compound 1 µM
# [35] = second compound 10 µM, first compound 3.16 µM
# [36] = second compound 10 µM, first compound 10 µM
# 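Also: spheroids exposed to drugs for 7 days.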
# 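For viability, T/C in this document: 100% = DMSO vehicle control viability.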
smiles,measurement,setting,value
COc1cccc2c1C(=O)c1c(O)c3c(c(O)c1C2=O)CC(O)(C(=O)CO)CC3OC1CC(N)C(O)C(C)O1 (stereo unspecified) + Cc1[nH]c2ccc(F)cc2c1-c1nc2c3cccnc3c3ncccc3c2[nH]1,IC50,second compound 0.0316 µM,696 nM
same,IC50,second compound 0.1 µM,511 nM
same,IC50,second compound 0.316 µM,686 nM
same,IC50,second compound 1 µM,674 nM
same,IC50,second compound 3.16 µM,623 nM
same,IC50,second compound 10 µM,667 nM
same,"viability, T/C",[1],104%
same,"viability, T/C",[2],99.2%
same,"viability, T/C",[3],95.9%
same,"viability, T/C",[4],28.9%
same,"viability, T/C",[5],5.65%
same,"viability, T/C",[6],0.19%
same,"viability, T/C",[7],117%
same,"viability, T/C",[8],88.9%
same,"viability, T/C",[9],70.5%
same,"viability, T/C",[10],29.5%
same,"viability, T/C",[11],0.54%
same,"viability, T/C",[12],0.13%
same,"viability, T/C",[13],96.1%
same,"viability, T/C",[14],116%
same,"viability, T/C",[15],81.4%
same,"viability, T/C",[16],34.9%
same,"viability, T/C",[17],0.6%
same,"viability, T/C",[18],0.26%
same,"viability, T/C",[19],104%
same,"viability, T/C",[20],96.3%
same,"viability, T/C",[21],85.5%
same,"viability, T/C",[22],32%
same,"viability, T/C",[23],0.77%
same,"viability, T/C",[24],0.15%
same,"viability, T/C",[25],84.7%
same,"viability, T/C",[26],92.1%
same,"viability, T/C",[27],75%
same,"viability, T/C",[28],32.4%
same,"viability, T/C",[29],1.37%
same,"viability, T/C",[30],0.86%
same,"viability, T/C",[31],90.4%
same,"viability, T/C",[32],98%
same,"viability, T/C",[33],81.5%
same,"viability, T/C",[34],32.8%
same,"viability, T/C",[35],1.17%
same,"viability, T/C",[36],0.68%
CC1COCCN1c1cc(C2(S(C)(=N)=O)CC2)nc(-c2ccnc3[nH]ccc23)n1 (stereo unspecified) + Cc1cnc(CNC(=O)c2c(=O)c3ccc(N4CCCN(C)CC4)nc3n3c2sc2ccccc23)cn1,IC50,second compound 0.0316 µM,787 nM
same,IC50,second compound 0.1 µM,579 nM
same,IC50,second compound 0.316 µM,885 nM
same,IC50,second compound 1 µM,564 nM
same,IC50,second compound 3.16 µM,< 31.6 nM
same,IC50,second compound 10 µM,65.4 nM
same,"viability, T/C",[1],107%
same,"viability, T/C",[2],92.4%
same,"viability, T/C",[3],89.8%
same,"viability, T/C",[4],39.4%
same,"viability, T/C",[5],13.1%
same,"viability, T/C",[6],8.67%
same,"viability, T/C",[7],101%
same,"viability, T/C",[8],73.4%
same,"viability, T/C",[9],68.2%
same,"viability, T/C",[10],39.8%
same,"viability, T/C",[11],18.4%
same,"viability, T/C",[12],9.76%
same,"viability, T/C",[13],73.3%
same,"viability, T/C",[14],83.1%
same,"viability, T/C",[15],66.7%
same,"viability, T/C",[16],47.5%
same,"viability, T/C",[17],27.2%
same,"viability, T/C",[18],17%
same,"viability, T/C",[19],46.2%
same,"viability, T/C",[20],64.6%
same,"viability, T/C",[21],64.6%
same,"viability, T/C",[22],41.6%
same,"viability, T/C",[23],31.6%
same,"viability, T/C",[24],21.3%
same,"viability, T/C",[25],41.8%
same,"viability, T/C",[26],48.6%
same,"viability, T/C",[27],50.6%
same,"viability, T/C",[28],44.5%
same,"viability, T/C",[29],39.2%
same,"viability, T/C",[30],19.4%
same,"viability, T/C",[31],50.6%
same,"viability, T/C",[32],52%
same,"viability, T/C",[33],43.2%
same,"viability, T/C",[34],37%
same,"viability, T/C",[35],31.6%
same,"viability, T/C",[36],22%
COc1ccc([C@@H](O)c2cc(-c3ncnc4cc(N5CCOCC5)ccc34)c(F)cc2Cl)nn1 + Cc1cnc(CNC(=O)c2c(=O)c3ccc(N4CCCN(C)CC4)nc3n3c2sc2ccccc23)cn1,IC50,second compound 0.0316 µM,1880 nM
same,IC50,second compound 0.1 µM,1370 nM
same,IC50,second compound 0.316 µM,708 nM
same,IC50,second compound 1 µM,397 nM
same,IC50,second compound 3.16 µM,129 nM
same,IC50,second compound 10 µM,< 31.6 nM
same,"viability, T/C",[1],94.7%
same,"viability, T/C",[2],100%
same,"viability, T/C",[3],97.5%
same,"viability, T/C",[4],59%
same,"viability, T/C",[5],42.5%
same,"viability, T/C",[6],17.5%
same,"viability, T/C",[7],86.7%
same,"viability, T/C",[8],81.3%
same,"viability, T/C",[9],69.9%
same,"viability, T/C",[10],56.6%
same,"viability, T/C",[11],34.8%
same,"viability, T/C",[12],14.3%
same,"viability, T/C",[13],72.3%
same,"viability, T/C",[14],67%
same,"viability, T/C",[15],60.4%
same,"viability, T/C",[16],42.8%
same,"viability, T/C",[17],32.3%
same,"viability, T/C",[18],7.31%
same,"viability, T/C",[19],55.5%
same,"viability, T/C",[20],61.1%
same,"viability, T/C",[21],55.8%
same,"viability, T/C",[22],34.9%
same,"viability, T/C",[23],23.5%
same,"viability, T/C",[24],6.14%
same,"viability, T/C",[25],57.2%
same,"viability, T/C",[26],49.1%
same,"viability, T/C",[27],45.6%
same,"viability, T/C",[28],34.2%
same,"viability, T/C",[29],26.6%
same,"viability, T/C",[30],5.25%
same,"viability, T/C",[31],46.4%
same,"viability, T/C",[32],42.2%
same,"viability, T/C",[33],45%
same,"viability, T/C",[34],34.5%
same,"viability, T/C",[35],22.2%
same,"viability, T/C",[36],4.67%
